Measurements taken from US20080081078A1, “Prevention of Cell Proliferation by Inhibiting Myosin Light Chain Kinase” (The Board of Trustees of the University of Illinois, priority 2006, published 2008).
*1 amine or outer side, *2 acyl side, *3 side chain or, on linkers, in order; H or OH if unused. Where a SMILES comes first, the peptide text is derived from it. Bridges are numbered along the chain shown (N, C = ends). Roman numbers before positions name the chains, in order. [ ]: non-standard residue; d: D form. The star is where a group is joined. Actinocin(9to1) = Cc1c2oc3c(C)ccc(C(=O)[*:1])c3nc-2c(C(=O)[*:2])c(N)c1=O; NMeV = CN[C@H](C(=O)O)C(C)C; Cbz = O=C(OCc1ccccc1)*; Sar = CNCC(=O)O; CH2F = FC*

Legend:
[1] = tested on: SMC; assay: TUNEL staining of SMC; type: cell-based, pig
Experimental: Also, cells were treated with 50 μM z-VAD-fmk for 1 hour, 20 μM ML-7 for 4 hours or 50 μM z-VAD-fmk for 1 hours followed by 20 μM ML-7 for 4 hours (FIG. 5B). The cells were then fixed and stained with TUNEL reagent and DAPI.

[2] = tested on: pig pulmonary artery smooth muscle cells; assay: Cell death / apoptosis in smooth muscle cells (SMC); type: cell-based
Experimental: (§1) The stoichiometry of MLC20 phosphorylation (FIG. 1B, inset) was quantified using the urea gel/Western blotting method described above in untreated (Un) pig pulmonary artery smooth muscle cells (SMC) and SMC treated with 10 μM dexamethasone (Dex), 10 μM actinomycin D (ActD), 100 μM cycloheximide (Chx), 2 μM camptothecin (Cam), and 100 μM etoposide (Eto) for 24 hrs (mean+/−SE, n=3).
(§2) Next, in order to determine whether MLC-DP can trigger cell death, SMC were treated with ML-7 or KT5926, two inhibitors of MLCK (Nakanishi et al., 1990; Garcia, 1998; and Bain et al., 2003).
(§3) SMC cells were either treated with 10 μM cytochalasin D (CytD) or grown on the non-ionic substrate polyHema to prevent attachment.
SMC were left untreated, treated with ML-7 alone for 16 hours or treated with 50 μM z-VAD-fmk (caspase) for 1 hr followed by 20 μM ML-7 for 16 hours. […] The results represent the mean+/−SE for 3 independent experiments and * indicates a p value <0.05 using a paired T test.

[3] = tested on: MLC20 phosphorylation; assay: MLC20 phosphorylation by urea gel/Western blotting in smooth muscle cells (SMC); type: cell-based, pig
Experimental: NIH 3T3 fibroblasts were obtained from ATCC and were grown in Dulbecco's Modified Eagle Medium (DMEM) (Gibco BRL, Gaithersburg, Md.) supplemented with 10% FBS and 1% penicillin and streptomycin in a 37° C. incubator. 3T3 cells were treated with 500 nM actinomycin D in DMEM containing 0.5% FBS without antibiotics for the 0, 2, 4, 8, 16, or 24 hours. Cells were then washed with phosphate buffered saline (PBS). Floating cells were collected by centrifugation and combined with attached cells that were harvested by trypsinization. MLC20 phosphorylation was quantified be Western blotting with an anti-MLC20 antibody (FIG. 1). In short, the harvested cells were treated with ice cold 10% TCA, 10 mM DTT to precipitate the cellular proteins. The pellets were washed with acetone, dissolved in 9 M urea, 10 mM DTT, 20 mM Tris, pH 7.5 and separated using glycerol-urea polyacrylamide gel electrophoresis (PAGE). The proteins were transferred to nitrocellulose, the un-, mono-, and di-phosphorylated forms of MLC20 were identified using an affinity purified antibody to MLC20 and horseradish peroxidase-linked secondary antibody (Jackson ImmunoResearch, West Grove, Pa.). Protein bands were visualized with ECL reagent and the stoichiometry of phosphorylation (mol PO4/mol MLC20) was calculated as described (Obara et al., 1989, “Okadaic acid, a phosphatase inhibitor, produces a Ca2+ and calmodulin-independent contraction of lamb tracheal smooth muscle,” Pfluger's Archiv. 414: 134-138).
as §1, §2, §3

[4] = tested on: MLC20 phosphorylation; assay: MLC20 phosphorylation by urea gel/Western blotting in NIH 3T3 fibroblasts; type: cell-based; conditions: 500 nM actinomycin D, 0-24 hours
Experimental: NIH 3T3 fibroblasts were obtained from ATCC and were grown in Dulbecco's Modified Eagle Medium (DMEM) (Gibco BRL, Gaithersburg, Md.) supplemented with 10% FBS and 1% penicillin and streptomycin in a 37° C. incubator. 3T3 cells were treated with 500 nM actinomycin D in DMEM containing 0.5% FBS without antibiotics for the 0, 2, 4, 8, 16, or 24 hours. Cells were then washed with phosphate buffered saline (PBS). Floating cells were collected by centrifugation and combined with attached cells that were harvested by trypsinization. MLC20 phosphorylation was quantified be Western blotting with an anti-MLC20 antibody (FIG. 1). In short, the harvested cells were treated with ice cold 10% TCA, 10 mM DTT to precipitate the cellular proteins. The pellets were washed with acetone, dissolved in 9 M urea, 10 mM DTT, 20 mM Tris, pH 7.5 and separated using glycerol-urea polyacrylamide gel electrophoresis (PAGE). […] Protein bands were visualized with ECL reagent and the stoichiometry of phosphorylation (mol PO4/mol MLC20) was calculated as described (Obara et al., 1989, “Okadaic acid, a phosphatase inhibitor, produces a Ca2+ and calmodulin-independent contraction of lamb tracheal smooth muscle,” Pfluger's Archiv. 414: 134-138).

[5] = tested on: NIH 3T3 cells; assay: Cell death in NIH 3T3 cells; type: cell-based; conditions: data not shown
[6] = 24 hrs, 10 μM Dex, 10 μM ActD, 100 μM Chx, 2 μM Cam, 100 μM Eto

## COC(=O)C[C@H](NC(=O)[C@H](C)NC(=O)[C@@H](NC(=O)OCc1ccccc1)C(C)C)C(=O)CF [z-VAD-fmk] (Cbz-Val-Ala-Asp(OMe)-CH2F)
[1]; 50 μM z-VAD-fmk 1 hour then 20 μM ML-7 4 hours
  TUNEL positive nuclei in ML-7 treated cells: decreased the number of TUNEL positive nuclei
[1]; single agent: 50 μM z-VAD-fmk 1 hour or 20 μM ML-7 4 hours
  TUNEL positive nuclei: very few TUNEL positive nuclei
[2]; 50 μM z-VAD-fmk 1 hr then 20 μM ML-7 16 hours, vs ML-7 alone
  number of apoptotic cells (FACS): significant decrease

## Cc1c2oc3c(C)ccc(C(=O)N[C@@H]4C(=O)N[C@H](C(C)C)C(=O)N5CCC[C@H]5C(=O)N(C)CC(=O)N(C)[C@@H](C(C)C)C(=O)O[C@@H]4C)c3nc-2c(C(=O)N[C@@H]2C(=O)N[C@H](C(C)C)C(=O)N3CCC[C@H]3C(=O)N(C)CC(=O)N(C)[C@@H](C(C)C)C(=O)O[C@@H]2C)c(N)c1=O [actinomycin D] (I: T[dV]P[Sar][NMeV] / II: T[dV]P[Sar][NMeV]; ester I:1-I:C, II:1-II:C; linker I:N-II:N via Actinocin(9to1))
[3]; [6]
  MLC20 phosphorylation: dephosphorylated
[4]
  MLC20 phosphorylation: initial increase in MLC20 phosphorylation that was followed by MLC20 dephosphorylation

## C[C@@H]1C[C@@H]([C@H](O)CC2CC(=O)NC(=O)C2)C(=O)[C@@H](C)C1 [cycloheximide]
[3]; [6]
  MLC20 phosphorylation: dephosphorylated

## C=C1[C@@H](C)[C@H]2[C@H](Cc3ccccc3)NC(=O)[C@]23[C@H](OC(C)=O)/C=C/[C@@](C)(O)C(=O)[C@@H](C)C/C=C/[C@H]3[C@@H]1O [cytochalasin D]
[3]; 10 μM cytochalasin D overnight, vs untreated
  MLC20 phosphorylation: significant decreases
[2]; SMC, 10 μM cytochalasin D overnight, vs untreated
  cell death: significant increases

## CC[C@@]1(O)C(=O)OCc2c1cc1n(c2=O)Cc2cc3ccccc3nc2-1 [camptothecin]
[3]; [6]
  MLC20 phosphorylation: dephosphorylated

## CCCOc1ccc2c(c1)c1c3c(c4c5ccccc5n5c4c1n2[C@H]1C[C@](O)(C(=O)OC)[C@]5(C)O1)CNC3=O (relative stereo) [KT5926, [(8R*,9S*,11S*)-(−)9-hydroxy-9-methoxycarbonyl-8-methyl-14-n-propoxy-2,3,9,10-tetrahydro-8,11-epoxy, 1H,8H, 11H-2,7b,11a-triazadibenzo [a,g]cycloocta [cde]trinden-1-one]
[5]
  cell death: cell death, including genome digestion
